Data: patent US3957987A, “Compositions containing a carbonamidoquinoxaline-di-N-oxide and method of using same” (Bayer Aktiengesellschaft, priority 1971, dated 1976)
Converted amounts (≈) assume the structure as drawn.

Tests used:
Format in all cases: cell-based
[1] = tested on: Klebsiella 63; assay: Minimum inhibitory concentration in vitro, Klebsiella 63
Text: (§1) As representative of the spectrum of antimicrobial activity for these compounds, the following representative minimum inhibitory concentrations shown on Tables A, B and C can be noted:
(§2) Minimum Inhibitory Concentrations In Vitro, in μg/ml of Medium

[2] = tested on: Klebsiella 8085; assay: Minimum inhibitory concentration in vitro, Klebsiella 8085
Text: as §1, §2

[3] = tested on: Staphylococcus aureus 133; assay: Minimum inhibitory concentration in vitro, Staphylococcus aureus 133
Text: as §1, §2

[4] = tested on: Streptococcus pyogenes; assay: Minimum inhibitory concentration in vitro, Streptococcus pyogenes
Text: as §1, §2

[5] = tested on: Escherichia coli C 165; assay: Minimum inhibitory concentration in vitro, Escherichia coli C 165; conditions: C165
Text: as §1, §2

[6] = tested on: Escherichia coli A 261; assay: Minimum inhibitory concentration in vitro, Escherichia coli A 261; conditions: A261
Text: as §1, §2

[7] = tested on: Proteus vulgaris; assay: Minimum inhibitory concentration in vitro, Proteus vulgaris specieis
Text: as §1, §2

[8] = tested on: Clostridium tetani; assay: microbe, parasite or virus in culture; conditions: read-out: minimum inhibitory concentration
[9] = tested on: Clostridium botulinum; assay: microbe, parasite or virus in culture; conditions: read-out: minimum inhibitory concentration
[10] = tested on: Mycoplasma S6; assay: Minimum inhibitory concentration, Mycoplasma S6
[11] = tested on: Mycoplasma gran; assay: Minimum inhibitory concentration, Mycoplasma gran
[12] = tested on: Pasteurella multocida ATCC; assay: Minimum inhibitory concentration, Pasteurella multocida ATCC
[13] = tested on: Alcaligenes faecalis ATCC; assay: Minimum inhibitory concentration, Alcaligenes faecalis ATCC
[14] = tested on: Bordetella bronchiseptica; assay: Minimum inhibitory concentration, Bordetella bronchiseptica
[15] = tested on: Aeromonas liquefaciens; assay: Minimum inhibitory concentration, Aeromonas liquefaciens; conditions: Aeromonas hydrophila
[16] = tested on: Mycobacterium species; assay: Minimum inhibitory concentration, Mycobacterium species
Text: As representative of the spectrum of antimicrobial activity for these compounds, the following representative minimum inhibitory concentrations shown on Tables A, B and C can be noted: […]

| Structure (SMILES) | MIC [1] | MIC [2] | MIC [3] | MIC [4] | MIC [5] | MIC [6] | MIC [7] | MIC [8] | MIC [9] | MIC [10] | MIC [11] | MIC [12] | MIC [13] | MIC [14] | MIC [15] | MIC [16] |
| --- | --- | --- | --- | --- | --- | --- | --- | --- | --- | --- | --- | --- | --- | --- | --- | --- |
| CCNC(=O)c1c(C=NNC(=O)OC)[n+]([O-])c2ccccc2[n+]1[O-] [Example 18] | 100 mg/L (≈ 300 µM) | 10 mg/L (≈ 30 µM) | 100 mg/L (≈ 300 µM) | 100 mg/L (≈ 300 µM) | 100 mg/L (≈ 300 µM) | 100 mg/L (≈ 300 µM) | 100 mg/L (≈ 300 µM) | 100 mg/L (≈ 300 µM) | 100 mg/L (≈ 300 µM) | 100 mg/L (≈ 300 µM) | 100 mg/L (≈ 300 µM) | 100 mg/L (≈ 300 µM) | 100 mg/L (≈ 300 µM) | 100 mg/L (≈ 300 µM) | 100 mg/L (≈ 300 µM) | 100 mg/L (≈ 300 µM) |
| CNC(=O)c1c(C=NO)[n+]([O-])c2ccccc2[n+]1[O-] [Example 19] | 100 mg/L (≈ 381 µM) | 100 mg/L (≈ 381 µM) | 100 mg/L (≈ 381 µM) | 100 mg/L (≈ 381 µM) | 100 mg/L (≈ 381 µM) | 100 mg/L (≈ 381 µM) | 100 mg/L (≈ 381 µM) | 100 mg/L (≈ 381 µM) | 100 mg/L (≈ 381 µM) | 100 mg/L (≈ 381 µM) | 100 mg/L (≈ 381 µM) | 100 mg/L (≈ 381 µM) | 100 mg/L (≈ 381 µM) | 100 mg/L (≈ 381 µM) | 100 mg/L (≈ 381 µM) | 40 to 100 mg/L (≈ 153 to 381 µM) |
